Activity calls are given as the source filed them. The calls are words filed in the database; no cut-off is given here.
How the values were obtained:
Escherichia coli = assay: Antibacterial activity against Escherichia coli assessed as growth inhibition; format: functional, organism-based
Proteus mirabilis [1] = assay: Antibacterial activity against Proteus mirabilis assessed as growth inhibition; format: functional
Klebsiella pneumoniae [2] = assay: Antibacterial activity against Klebsiella pneumoniae assessed as growth inhibition; format: functional
[3] = Therapeutic index, ratio of LD50 for african green monkey Vero cells to EC50 for Avian influenza virus H5N1 infected in african green monkey Vero cells; format: cell-based; details: read-out: Ratio LD50/EC50
Pseudomonas aeruginosa = assay: Antibacterial activity against Pseudomonas aeruginosa assessed as growth inhibition; format: functional, organism-based
[4] = test system: unidentified influenza virus; assay: Antiviral activity against unidentified influenza virus (H5N1) infected African green monkey Vero cells assessed as protection against virus-induced cytopathic effect incubated for 3 days measured on day 4 post infection by MTT assay; format: functional, organism-based
Vero = assay: Cytotoxicity against Chlorocebus aethiops (African green monkey) Vero cells after 24 hr by MTT assay; format: cell-based; details: chlorocebus sabaeus
Bacillus subtilis [5] = assay: Antibacterial activity against Bacillus subtilis assessed as growth inhibition; format: functional
Staphylococcus aureus = assay: Antibacterial activity against Staphylococcus aureus assessed as growth inhibition; format: functional
Proteus mirabilis [6] = assay: Antibacterial activity against Proteus mirabilis assessed as growth inhibition at 0.042 uM/ml; format: functional, organism-based
Klebsiella pneumoniae [7] = assay: Antibacterial activity against Klebsiella pneumoniae assessed as growth inhibition at 0.042 uM/ml; format: functional, organism-based
Bacillus subtilis [8] = assay: Antibacterial activity against Bacillus subtilis assessed as growth inhibition at 0.042 uM/ml; format: functional, organism-based

Row | Molecule | growth inhibition (GI) (Escherichia coli) | growth inhibition (GI) (Proteus mirabilis [1]) | diameter of the inhibition zone (DIZ) (Klebsiella pneumoniae [2]) [mm] | selectivity ratio [3] | growth inhibition (GI) (Pseudomonas aeruginosa) | EC50 [4] [uM/ml] | LD50 (Vero) [uM/ml] | diameter of the inhibition zone (DIZ) (Bacillus subtilis [5]) [mm] | growth inhibition (GI) (Staphylococcus aureus) | diameter of the inhibition zone (DIZ) (Staphylococcus aureus) [mm] | growth inhibition (GI) (Bacillus subtilis [5]) | growth inhibition (GI) (Klebsiella pneumoniae [2]) | diameter of the inhibition zone (DIZ) (Proteus mirabilis [1]) [mm] | inhibition zone (IZ) (Proteus mirabilis [6]) [mm] | inhibition zone (IZ) (Klebsiella pneumoniae [7]) [mm] | inhibition zone (IZ) (Bacillus subtilis [8]) [mm]
1 | NC1=NC(c2cn(-c3ccccc3)nc2-c2ccccc2)c2c(ccc3ccccc23)O1 (stereo not given) | inactive | inactive | 11 | 5.61 | inactive | 0.0148 | 0.083 | 12 | inactive |  |  |  |  |  |  | 
2 | c1ccc(-c2nn(-c3ccccc3)cc2C2NC(c3cn(-c4ccccc4)nc3-c3ccccc3)c3c(ccc4ccccc34)O2)cc1 (stereo not given) | inactive | inactive | 11 | 1.98 | inactive | 0.045 | 0.089 | 11 |  | 11 |  |  |  |  |  | 
3 | c1ccc(C2=NC(c3c[nH]c4ccccc34)c3c(ccc4ccccc34)O2)cc1 (stereo not given) | inactive | inactive | 11 | 2.12 | inactive | 0.049 | 0.104 | 14 |  | 11 |  |  |  |  |  | 
4 | NC1=NC(c2c[nH]c3ccccc23)c2c(ccc3ccccc23)O1 (stereo not given) | inactive | inactive | 13 | 2.05 | inactive | 0.061 | 0.125 | 12 | inactive |  |  |  |  |  |  | 
5 | CC(=O)NC(c1cn(-c2ccccc2)nc1-c1ccccc1)c1c(O)ccc2ccccc12 (stereo not given) | inactive | inactive | 18 | 7.19 | inactive | 0.021 | 0.151 |  | inactive |  | inactive |  |  |  |  | 
6 | CC(=O)NC(c1c(O)ccc2ccccc12)c1c[nH]c2ccccc12 (stereo not given) | inactive | inactive |  | 8.95 | inactive | 0.022 | 0.197 | 17 |  | 20 |  | inactive |  |  |  | 
7 | NC(=O)NC(c1cn(-c2ccccc2)nc1-c1ccccc1)c1c(O)ccc2ccccc12 (stereo not given) | inactive |  | 11 | 6.84 | inactive | 0.025 | 0.171 |  |  | 24 | inactive |  | 0 |  |  | 
8 | NC(=O)NC(c1c(O)ccc2ccccc12)c1c[nH]c2ccccc12 (stereo not given) | inactive | inactive | 11 | 7 | inactive | 0.031 | 0.217 |  | inactive |  | inactive |  |  |  |  | 
9 | O=C(NC(c1c(O)ccc2ccccc12)c1c[nH]c2ccccc12)c1ccccc1 (stereo not given) | inactive | inactive |  | 16.2 | inactive | 0.019 | 0.307 | 11 |  | 11 |  | inactive |  |  |  | 
10 | O=C(NC(c1cn(-c2ccccc2)nc1-c1ccccc1)c1c(O)ccc2ccccc12)c1ccccc1 (stereo not given) | inactive | inactive | 14 | 5.44 | inactive | 0.018 | 0.098 | 20 | inactive |  |  |  |  |  |  | 
11 | CC(=O)N[C@H]1[C@H]([C@H](O)[C@H](O)CO)OC(C(=O)O)=C[C@@H]1NC(=N)N [ZANAMIVIR] |  |  |  | 15.5 |  | 0.015 | 0.232 |  |  |  |  |  |  |  |  | 
12 | c1ccc2c3c(ccc2c1)OC(c1c[nH]c2ccccc12)NC3c1c[nH]c2ccccc12 (stereo not given) | inactive | inactive | 12 | 0.726 | inactive | 0.168 | 0.122 | 13 | inactive |  |  |  |  |  |  | 
13 | GENTAMICIN |  |  |  |  |  |  |  |  |  |  |  |  |  | 25 | 19 | 21
